Data reported in patent US11000033B2, “Ketone or oxime compound, and herbicide” (NISSAN CHEMICAL CORPORATION, priority 2014, dated 2021).

Columns and labels:
Format in all cases: in vivo
[1] = tested on: corn; assay: Test Example 5: effect on crop by foliage application, plastic box (symbol c); conditions: 320 g/ha, 3 weeks after application
How it was run: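 Box culture: sterile diluvial soil, seeds spot-sown, ~1.5 cm cover, raised under glass at 25–30° C.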

[2] = tested on: Abutilon theophrasti; assay: Test Example 4: herbicidal effect by soil treatment (symbol M)
How it was run: (§1)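 Seeds were sown in sterilized diluvial soil, covered with about 1.5 cm of soil, and the soil surface was sprayed with a water-diluted emulsion of the compound at a predetermined rate. Plants grew in a greenhouse at 25° C. to 30° C.; effects were scored visually 3 weeks after application.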

[3] = tested on: Apera spica-venti; assay: Test Example 4: herbicidal effect by soil treatment (symbol L)
How it was run: as §1

[4] = tested on: Alopecurus myosuroides; assay: Test Example 5: herbicidal effect by foliage application, plastic box (symbol J); conditions: 320 g/ha, 3 weeks after application
How it was run: (§2)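 Effect is rated 3 weeks after a foliar spray of water-diluted emulsion concentrate at a predetermined herbicide amount. Plants had grown 14 days in a 25° C. to 30° C. greenhouse from seed in sterilized diluvial soil.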

[5] = tested on: Amaranthus retroflexus; assay: Test Example 5: herbicidal effect by foliage application, plastic box (symbol N); conditions: 320 g/ha, 3 weeks after application
How it was run: as §2

[6] = tested on: corn; assay: Test Example 4: effect on crop by soil treatment (symbol c); conditions: for c: corn, effect grade on crop: 320 g/ha
How it was run: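 Grown at 25° C. to 30° C. in a greenhouse, the crops came from seed sown spot-wise in sterilized diluvial soil under roughly 1.5 cm of covering soil.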

[7] = tested on: Echinochloa oryzacola Vasing.; assay: Test Example 2: herbicidal activity, application during weed generation in submerged conditions (symbol A); conditions: Table 23; application herbicide amount 320 g/ha; grade 0-5 by criteria of Test Example 1
How it was run: (§3)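 Steps: fill pots with alluvial soil; add water to 4 cm depth; co-sow the three weeds; grow at 25° C. to 30° C. under glass; at 1–2 leaves, dose the floodwater with diluted emulsion; rate damage visually after 3 weeks.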

[8] = tested on: Digitaria ciliaris; assay: Test Example 5: herbicidal effect by foliage application, plastic box (symbol F); conditions: 320 g/ha, 3 weeks after application
How it was run: as §2

[9] = tested on: transplanted rice plant; assay: Test Example 1: effect on crop, application before weed generation in submerged conditions (symbol a); conditions: application herbicide amount 320 g/ha
How it was run: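 Alluvial soil pots flooded to 4 cm water, sown with Echinochloa oryzacola, Scirpus juncoides and Monochoria vaginalis, then transplanted with 2.5 leaf stage rice seedlings; pre-emergence application. Greenhouse 25° C. to 30° C.; scored 0–5 by herbicidal ratio 3 weeks after application.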

[10] = tested on: Alopecurus myosuroides; assay: Test Example 4: herbicidal effect by soil treatment (symbol J)
How it was run: as §1

[11] = tested on: Avena fatua; assay: Test Example 4: herbicidal effect by soil treatment (symbol I)
How it was run: as §1

[12] = tested on: Scirpus juncoides; assay: Test Example 2: herbicidal activity, application during weed generation in submerged conditions (symbol B); conditions: Table 23; application herbicide amount 320 g/ha; grade 0-5 by criteria of Test Example 1
How it was run: as §3

[13] = tested on: Echinochloa crus-galli var. crus-galli; assay: Test Example 3: herbicidal effect by foliage application, Wagner pot (symbol H); conditions: application herbicide amount 320 g/ha; for H (Echinochloa crus-galli var. crus-galli) herbicidal effect grade: Table 24
How it was run: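 Post-emergence, paddy-type test: seedlings 14 d old in shallow-flooded (0.1–0.5 cm) alluvial soil, 25–30 °C greenhouse. Emulsion diluted to target rate, sprayed on leaves. Read-out: visual effect on each species at 3 weeks, per set criteria.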

[14] = tested on: Veronica persica; assay: Test Example 5: herbicidal effect by foliage application, plastic box (symbol R); conditions: 320 g/ha, 3 weeks after application
How it was run: as §2

[15] = application herbicide amount 320 g/ha

Q: What does the source list for `CON=C(C)CC1CC(OS(=O)(=O)N(C)C)=C(c2c(C)cc(C)cc2C)C1=O` (stereo not shown) [1-122]?
A: c: corn, effect on crop (criteria 0-5) [1]: 5 (Herbicidal ratio of 90% or more (almost completely withered)); M: Abutilon theophrasti, herbicidal effect grade ([2]; 320 g/ha): 0 (Herbicidal ratio of 5% or lower (almost no effect)); L: Apera spica-venti, herbicidal effect grade ([3]; 320 g/ha): 1 (Herbicidal ratio of 5% or higher and lower than 20%); J: Alopecurus myosuroides, herbicidal effect (criteria 0-5) [4]: 5 (Herbicidal ratio of 90% or more (almost completely withered)); N: Amaranthus retroflexus, herbicidal effect (criteria 0-5) [5]: 1 (Herbicidal ratio of 5% or higher and lower than 20%); c: corn, effect grade on crop [6]: 2 (Herbicidal ratio of 20% or higher and lower than 40%); Herbicidal effect grade, A: Echinochloa oryzacola Vasing. [7]: 5 (Herbicidal ratio of 90% or more (almost completely withered)); F: Digitaria ciliaris, herbicidal effect (criteria 0-5) [8]: 4 (Herbicidal ratio of 70% or higher and lower than 90%); Effect grade on crop, a: transplanted rice plant [9]: 5 (Herbicidal ratio of 90% or more (almost completely withered)); J: Alopecurus myosuroides, herbicidal effect grade ([10]; 320 g/ha): 5 (Herbicidal ratio of 90% or more (almost completely withered)); I: Avena fatua, herbicidal effect grade ([11]; 320 g/ha): 2 (Herbicidal ratio of 20% or higher and lower than 40%); Herbicidal effect grade, B: Scirpus juncoides [12]: 5 (Herbicidal ratio of 90% or more (almost completely withered)); herbicidal effect on H (Echinochloa crus-galli var. crus-galli), grade 0-5 [13]: 5 (Herbicidal ratio of 90% or more (almost completely withered)); R: Veronica persica, herbicidal effect (criteria 0-5) [14]: 0 (Herbicidal ratio of 5% or lower (almost no effect))

Q: With `CC(CC1CC(O)=C(c2c(C)cc(C)cc2C)C1=O)=NOCc1cccc(C(F)(F)F)c1` (stereo not shown) [1-117] as the compound, how does the “c: corn, effect on crop (criteria 0-5)” value [1] read?
A: 3 (Herbicidal ratio of 40% or higher and lower than 70%)

Q: What about the “M: Abutilon theophrasti, herbicidal effect grade” value ([2]; 320 g/ha) of the same compound?
A: 0 (Herbicidal ratio of 5% or lower (almost no effect))

Q: And the “L: Apera spica-venti, herbicidal effect grade” value ([3]; 320 g/ha)?
A: 5 (Herbicidal ratio of 90% or more (almost completely withered))

Q: And the “J: Alopecurus myosuroides, herbicidal effect (criteria 0-5)” value [4]?
A: 5 (Herbicidal ratio of 90% or more (almost completely withered))

Q: And the “N: Amaranthus retroflexus, herbicidal effect (criteria 0-5)” value [5]?
A: 1 (Herbicidal ratio of 5% or higher and lower than 20%)

Q: And the “c: corn, effect grade on crop” value [6]?
A: 0 (Herbicidal ratio of 5% or lower (almost no effect))

Q: What about the “Herbicidal effect grade, A: Echinochloa oryzacola Vasing.” value [7] of the same compound?
A: 4 (Herbicidal ratio of 70% or higher and lower than 90%)

Q: And the “F: Digitaria ciliaris, herbicidal effect (criteria 0-5)” value [8]?
A: 5 (Herbicidal ratio of 90% or more (almost completely withered))

Q: What about the “Effect grade on crop, a: transplanted rice plant” value [9] of the same compound?
A: 5 (Herbicidal ratio of 90% or more (almost completely withered))

Q: What about the “J: Alopecurus myosuroides, herbicidal effect grade” value ([10]; 320 g/ha) of the same compound?
A: 4 (Herbicidal ratio of 70% or higher and lower than 90%)

Q: And the “I: Avena fatua, herbicidal effect grade” value ([11]; 320 g/ha)?
A: 0 (Herbicidal ratio of 5% or lower (almost no effect))

Q: What about the “Herbicidal effect grade, B: Scirpus juncoides” value [12] of the same compound?
A: 3 (Herbicidal ratio of 40% or higher and lower than 70%)

Q: And the “herbicidal effect on H (Echinochloa crus-galli var. crus-galli), grade 0-5” value [13]?
A: 5 (Herbicidal ratio of 90% or more (almost completely withered))

Q: What about the “R: Veronica persica, herbicidal effect (criteria 0-5)” value [14] of the same compound?
A: 3 (Herbicidal ratio of 40% or higher and lower than 70%)

Q: Which results are given for `CC#Cc1cc(C)c(C2=C(O)CC(CC(=NOCC(F)(F)F)C(C)C)C2=O)c(C)c1` (stereo not shown) [9-015]?
A: c: corn, effect on crop grade [1]: 5 (Herbicidal ratio of 90% or more (almost completely withered)); Herbicidal effect grade, M: Abutilon theophrasti [2, 15]: 0 (Herbicidal ratio of 5% or lower (almost no effect)); Herbicidal effect grade, L: Apera spica-venti [3, 15]: 5 (Herbicidal ratio of 90% or more (almost completely withered)); J: Alopecurus myosuroides, herbicidal effect grade [4]: 5 (Herbicidal ratio of 90% or more (almost completely withered)); N: Amaranthus retroflexus, herbicidal effect grade [5]: 0 (Herbicidal ratio of 5% or lower (almost no effect)); Effect on crop grade, c: corn [6, 15]: 0 (Herbicidal ratio of 5% or lower (almost no effect)); Herbicidal effect grade, A: Echinochloa oryzacola Vasing. [7]: 5 (Herbicidal ratio of 90% or more (almost completely withered)); F: Digitaria ciliaris, herbicidal effect grade [8]: 5 (Herbicidal ratio of 90% or more (almost completely withered)); a (transplanted rice plant) effect on crop grade [9]: 5 (Herbicidal ratio of 90% or more (almost completely withered)); Herbicidal effect grade, J: Alopecurus myosuroides [10, 15]: 5 (Herbicidal ratio of 90% or more (almost completely withered)); Herbicidal effect grade, I: Avena fatua [11, 15]: 1 (Herbicidal ratio of 5% or higher and lower than 20%); Herbicidal effect grade, B: Scirpus juncoides [12]: 3 (Herbicidal ratio of 40% or higher and lower than 70%); H (Echinochloa crus-galli var. crus-galli) herbicidal effect grade [13]: 5 (Herbicidal ratio of 90% or more (almost completely withered)); R: Veronica persica, herbicidal effect grade [14]: 4 (Herbicidal ratio of 70% or higher and lower than 90%)

Q: What does the source list for `CCC(=O)CC1CC(O)=C(c2c(C)cc(Br)cc2OC)C1=O` (racemic) [14-002]?
A: c: corn, effect on crop grade [1]: 5 (Herbicidal ratio of 90% or more (almost completely withered)); M: Abutilon theophrasti, herbicidal effect grade [2, 15]: 0 (Herbicidal ratio of 5% or lower (almost no effect)); L: Apera spica-venti, herbicidal effect grade [3, 15]: 5 (Herbicidal ratio of 90% or more (almost completely withered)); J: Alopecurus myosuroides, herbicidal effect grade [4]: 5 (Herbicidal ratio of 90% or more (almost completely withered)); N: Amaranthus retroflexus, herbicidal effect grade [5]: 0 (Herbicidal ratio of 5% or lower (almost no effect)); c: corn, effect on crop grade [6, 15]: 1 (Herbicidal ratio of 5% or higher and lower than 20%); Herbicidal effect grade, A: Echinochloa oryzacola Vasing. [7]: 5 (Herbicidal ratio of 90% or more (almost completely withered)); F: Digitaria ciliaris, herbicidal effect grade [8]: 5 (Herbicidal ratio of 90% or more (almost completely withered)); a (transplanted rice plant) effect on crop grade [9]: 2 (Herbicidal ratio of 20% or higher and lower than 40%); J: Alopecurus myosuroides, herbicidal effect grade [10, 15]: 4 (Herbicidal ratio of 70% or higher and lower than 90%); I: Avena fatua, herbicidal effect grade [11, 15]: 0 (Herbicidal ratio of 5% or lower (almost no effect)); Herbicidal effect grade, B: Scirpus juncoides [12]: 0 (Herbicidal ratio of 5% or lower (almost no effect)); H (Echinochloa crus-galli var. crus-galli) herbicidal effect grade [13]: 5 (Herbicidal ratio of 90% or more (almost completely withered)); R: Veronica persica, herbicidal effect grade [14]: 0 (Herbicidal ratio of 5% or lower (almost no effect))

Q: Which results are given for `CON=C(CC1CC(O)=C(c2c(C)cc(-c3ccccc3)cc2C)C1=O)C1CC1` (mixture of isomers) [9-028]?
A: c: corn, effect on crop grade [1]: 5 (Herbicidal ratio of 90% or more (almost completely withered)); Herbicidal effect grade, M: Abutilon theophrasti [2, 15]: 0 (Herbicidal ratio of 5% or lower (almost no effect)); Herbicidal effect grade, L: Apera spica-venti [3, 15]: 5 (Herbicidal ratio of 90% or more (almost completely withered)); J: Alopecurus myosuroides, herbicidal effect grade [4]: 5 (Herbicidal ratio of 90% or more (almost completely withered)); N: Amaranthus retroflexus, herbicidal effect grade [5]: 1 (Herbicidal ratio of 5% or higher and lower than 20%); Effect on crop grade, c: corn [6, 15]: 1 (Herbicidal ratio of 5% or higher and lower than 20%); Herbicidal effect grade, A: Echinochloa oryzacola Vasing. [7]: 5 (Herbicidal ratio of 90% or more (almost completely withered)); F: Digitaria ciliaris, herbicidal effect grade [8]: 5 (Herbicidal ratio of 90% or more (almost completely withered)); a (transplanted rice plant) effect on crop grade [9]: 5 (Herbicidal ratio of 90% or more (almost completely withered)); Herbicidal effect grade, J: Alopecurus myosuroides [10, 15]: 5 (Herbicidal ratio of 90% or more (almost completely withered)); Herbicidal effect grade, I: Avena fatua [11, 15]: 3 (Herbicidal ratio of 40% or higher and lower than 70%); Herbicidal effect grade, B: Scirpus juncoides [12]: 4 (Herbicidal ratio of 70% or higher and lower than 90%); H (Echinochloa crus-galli var. crus-galli) herbicidal effect grade [13]: 5 (Herbicidal ratio of 90% or more (almost completely withered)); R: Veronica persica, herbicidal effect grade [14]: 4 (Herbicidal ratio of 70% or higher and lower than 90%)
